# Laboratory results as given in ChEMBL document CHEMBL4196011, “The lead optimization of the polyamine conjugate of flavonoid with a naphthalene motif: Synthesis and biological evaluation” (Eur J Med Chem, 2018).
# Calls of active or inactive are those of the source. The rule behind the calls is not given here.
# How the values were obtained:
# HepG2 [1] = assay: Induction of apoptosis in human HepG2 cells assessed as viable cells at 2.5 uM after 24 hrs by Annexin V-FITC/propidium iodide staining-based flow cytometry (reference value: 96.97%); format: functional; conditions: HepG2, 24 h, read-out: Activity
# [2] = Drug localization in mitochondria of human HepG2 cells at 7.5 uM after 8 hrs by MitoTracker Green dye-based confocal fluorescence microscopic analysis; format: ADME; conditions: hepg2, 8 h
# HepG2 [3] = assay: Induction of apoptosis in human HepG2 cells assessed as late apoptotic cells at 5 uM after 8 hrs by Annexin V-FITC/propidium iodide staining-based flow cytometry (reference value: 0.88%); format: functional
# [4] = Drug localization in golgi apparatus of human HepG2 cells at 7.5 uM after 8 hrs by Golgi-Tracker Red dye-based confocal fluorescence microscopic analysis; format: ADME, subcellular; conditions: hepg2, 8 h
# HepG2 [5] = assay: Induction of apoptosis in human HepG2 cells assessed as viable cells at 5 uM after 24 hrs by Annexin V-FITC/propidium iodide staining-based flow cytometry (reference value: 96.97%); format: functional; conditions: HepG2, 24 h, read-out: Activity
# HepG2 [6] = assay: Induction of apoptosis in human HepG2 cells assessed as late apoptotic cells at 2.5 uM after 24 hrs by Annexin V-FITC/propidium iodide staining-based flow cytometry (reference value: 0.88%); format: functional
# H22 [7] = assay: Antitumor activity against […] xenografted in Kunming mouse assessed as tumor growth inhibition at 40 mg/kg, iv for 7 consecutive days measured on day 16; format: functional; conditions: 384 h, read-out: TGI
# HepG2 [8] = assay: Induction of apoptosis in human HepG2 cells assessed as early apoptotic cells at 7.5 uM after 24 hrs by Annexin V-FITC/propidium iodide staining-based flow cytometry (reference value: 2.07%); format: functional
# HepG2 [9] = assay: Induction of apoptosis in human HepG2 cells assessed as late apoptotic cells at 5 uM after 36 hrs by Annexin V-FITC/propidium iodide staining-based flow cytometry (reference value: 1.08%); format: functional
# HepG2 [10] = assay: Induction of apoptosis in human HepG2 cells assessed as viable cells at 5 uM after 8 hrs by Annexin V-FITC/propidium iodide staining-based flow cytometry (reference value: 97.43%); format: functional; conditions: HepG2, 8 h, read-out: Activity
# HepG2 [11] = assay: Induction of apoptosis in human HepG2 cells assessed as increase in Bid expression levels after 48 hrs by immunofluorescence staining-based high content screening assay; format: functional, cell-based
# HT-29 = assay: Antiproliferative activity against human HT-29 cells after 48 hrs by MTT assay; format: functional, cell-based; conditions: HT-29, 48 h
# HepG2 [12] = assay: Induction of apoptosis in human HepG2 cells assessed as upregulation of active caspase 8 level after 48 hrs by immunofluorescence staining-based high content screening assay; format: functional, cell-based
# HepG2 [13] = assay: Induction of apoptosis in human HepG2 cells assessed as decrease in Bcl2 protein expression after 48 hrs by immunofluorescence staining-based high content screening assay; format: functional, cell-based
# HepG2 [14] = assay: Induction of apoptosis in human HepG2 cells assessed as viable cells at 7.5 uM after 24 hrs by Annexin V-FITC/propidium iodide staining-based flow cytometry (reference value: 96.97%); format: functional; conditions: HepG2, 24 h, read-out: Activity
# HepG2 [15] = assay: Induction of apoptosis in human HepG2 cells assessed as necrotic cells at 7.5 uM after 48 hrs by Annexin V-FITC/propidium iodide staining-based flow cytometry (reference value: 0.08%); format: functional
# HepG2 [16] = assay: Induction of apoptosis in human HepG2 cells assessed as decrease in nuclear volume after 48 hrs by Hoechst 33342 staining-based assay; format: functional, cell-based
# HepG2 [17] = assay: Induction of apoptosis in human HepG2 cells assessed as necrotic cells at 2.5 uM after 8 hrs by Annexin V-FITC/propidium iodide staining-based flow cytometry (reference value: 0.40%); format: functional
# [18] = biological target: MAP kinase p38 (Homo sapiens) (UniProt O15264+Q15759+Q16539+P53778); assay: Induction of p38 phosphorylation in human HepG2 cells after 48 hrs by immunofluorescence staining-based high content screening assay; format: cell-based
# HepG2 [19] = assay: Induction of apoptosis in human HepG2 cells assessed as late apoptotic cells at 5 uM after 24 hrs by Annexin V-FITC/propidium iodide staining-based flow cytometry (reference value: 0.88%); format: functional
# HepG2 [20] = assay: Induction of ROS generation in human HepG2 cells after 48 hrs by DCFH-DA staining-based fluorescence assay; format: functional, cell-based
# Mus musculus = assay: Toxicity in Kunming mouse xenografted with […] H22 cells assessed as effect on lung weight index at 30 mg/kg, iv administered for 7 consecutive days; format: organism-based; conditions: in vivo
# [21] = Drug localization in lysosomes of human HepG2 cells at 7.5 uM after 8 hrs by LysoTracker Red dye-based confocal fluorescence microscopic analysis; format: ADME, subcellular, Lysosome; conditions: hepg2, 8 h
# [22] = Cytotoxicity against human QSG7701 cells up to 15 uM after 48 hrs by MTT assay; format: cell-based
# HepG2 [23] = assay: Induction of apoptosis in human HepG2 cells assessed as disruption of mitochondrial membrane potential after 48 hrs by Rh123 staining-based fluorescence quenching analysis; format: functional, cell-based
# HepG2 [24] = assay: Induction of apoptosis in human HepG2 cells assessed as early apoptotic cells at 2.5 uM after 24 hrs by Annexin V-FITC/propidium iodide staining-based flow cytometry (reference value: 2.07%); format: functional
# H22 [25] = assay: Antitumor activity against […] xenografted in Kunming mouse assessed as tumor growth inhibition at 30 mg/kg, iv for 7 consecutive days measured on day 16; format: functional; conditions: 384 h, read-out: TGI
# HepG2 [26] = assay: Induction of apoptosis in human HepG2 cells assessed as early apoptotic cells at 5 uM after 48 hrs by Annexin V-FITC/propidium iodide staining-based flow cytometry (reference value: 1.30%); format: functional
# HepG2 [27] = assay: Induction of apoptosis in human HepG2 cells assessed as viable cells at 7.5 uM after 48 hrs by Annexin V-FITC/propidium iodide staining-based flow cytometry (reference value: 96.67%); format: functional; conditions: HepG2, 48 h, read-out: Activity
# K562 = assay: Antiproliferative activity against human K562 cells after 48 hrs by MTT assay; format: functional, cell-based; conditions: K562, 48 h
# HepG2 [28] = assay: Induction of apoptosis in human HepG2 cells assessed as early apoptotic cells at 7.5 uM after 36 hrs by Annexin V-FITC/propidium iodide staining-based flow cytometry (reference value: 2.08%); format: functional
# HepG2 [29] = assay: Induction of apoptosis in human HepG2 cells assessed as increase in cleaved PARP1 levels after 48 hrs by immunofluorescence staining-based high content screening assay; format: functional, cell-based
# HepG2 [30] = assay: Antiproliferative activity against human HepG2 cells after 48 hrs by MTT assay; format: functional, cell-based; conditions: HepG2, 48 h
# HepG2 [31] = assay: Induction of apoptosis in human HepG2 cells assessed as necrotic cells at 5 uM after 36 hrs by Annexin V-FITC/propidium iodide staining-based flow cytometry (reference value: 0.24%); format: functional
# [32] = Drug localization in nucleus of human HepG2 cells at 7.5 uM after 8 hrs by Hoechst 33342 staining-based HCS analysis; format: ADME, subcellular; conditions: hepg2, 8 h
# [33] = biological target: c-Jun N-terminal kinase, JNK (Homo sapiens) (UniProt P45983+P53779+P45984); assay: Induction of JNK phosphorylation in human HepG2 cells after 48 hrs by immunofluorescence staining-based high content screening assay; format: cell-based
# HCT-116 = assay: Antiproliferative activity against human HCT116 cells after 48 hrs by MTT assay; format: functional, cell-based; conditions: HCT-116, 48 h
smiles,measurement,setting,value
COc1ccc2cc(-c3oc4c(CNCCCCN)cccc4c(=O)c3OC)ccc2c1Br.Cl.Cl,viability at 2.5 µM,HepG2 [1],88.7%
same,Drug uptake,[2],Active
same,Activity,HepG2 [3],1.91%
same,Drug uptake,[4],Not Active
same,viability at 5 µM,HepG2 [5],82.2%
same,Activity,HepG2 [6],0.88%
same,inhibition in vivo at 40 mg/kg,H22 [7],69.1%
same,Activity,HepG2 [8],18.85%
same,Activity,HepG2 [9],2.15%
same,viability at 5 µM,HepG2 [10],93%
same,Activity,HepG2 [11],Dose-dependent effect
same,IC50,HT-29,14.7 µM
same,Activity,HepG2 [12],Dose-dependent effect
same,Activity,HepG2 [13],Active
same,viability at 7.5 µM,HepG2 [14],67.2%
same,Activity,HepG2 [15],0.17%
same,Activity,HepG2 [16],Dose-dependent effect
same,Activity,HepG2 [17],0.3%
same,Activity,[18],Dose-dependent effect
same,Activity,HepG2 [19],2.03%
same,Activity,HepG2 [20],Dose-dependent effect
same,Activity,Mus musculus,Non-Toxic
same,Drug uptake,[21],Not Active
same,Activity,[22],Non-Toxic
same,Activity,HepG2 [23],Dose-dependent effect
same,Activity,HepG2 [24],10.46%
same,inhibition in vivo at 30 mg/kg,H22 [25],63.6%
same,Activity,HepG2 [26],26.36%
same,viability at 7.5 µM,HepG2 [27],45.6%
same,IC50,K562,13.4 µM
same,Activity,HepG2 [28],28.78%
same,Activity,HepG2 [29],Dose-dependent effect
same,IC50,HepG2 [30],7.1 µM
same,Activity,HepG2 [31],0.09%
same,Drug uptake,[32],Not Active
same,Activity,[33],Dose-dependent effect
same,IC50,HCT-116,15.1 µM
